Experimental data published in patent US11014943B2, “Azetidine derivative” (CHIA TAI TIANQING PHARMACEUTICAL GROUP CO., LTD., priority 2017, dated 2021).

Experiments:
MM1.S cells = assay: In vitro anti-proliferation test on MM1.S cells (CellTiter-Glo); assay type: cell-based; conditions: Homo sapiens, 48 h, 2 days incubation, cell viability
Method: This test was aimed to investigate the inhibitory effect of a compound on cell proliferation by determining the effect of the compound on cell viability in tumor cell line MM1.S in vitro.
MM1.S cells were seeded into a black 96-well cell culture plate at a density of 7,000 cells per well, and then the plate was incubated overnight in an incubator with 5% CO2 and 100% relative humidity at 37° C. A solution of a test compound in DMSO was added to the cell culture wells at a certain concentration (0.3 to 2000 nM), and then the culture plate was placed back to the incubator, and a vehicle control (containing DMSO with no compound) and a blank control were provided.
The culture plate was incubated in the incubator with 5% CO2 and 100% relative humidity at 37° C. for 2 days. The sample was treated using the Promega CellTiter-Glo Luminescent Cell Viability Assay Kit (Promega-G7571) standard method, and a luminescent signal was detected on the SpectraMax i3x of Molecular Devices plate reader. The inhibition rate of the test compound was calculated through the following equation using original data: […]
RLU represents a relative luminescence intensity.

[1] = Liver microsome stability test, human; assay type: in vitro ADME; conditions: human liver microsomes; human (H) liver microsome; read-out: Liver microsome stability (T1/2, min)
Method: (§1) A test compound was incubated with CD-1 mouse liver microsome, SD rat liver microsome, and human liver microsome, respectively, to evaluate the stability of the test compound.
(§2) Preparation of a solution sample of the test compound: 10 mM solution (5 μL) of a compound prepared in the Example in DMSO was added to a mixed solvent (450 μL) of DMSO (45 μL), methanol and water (a volume ratio of methanol to water was 1:1) to prepare a 100 μM solution of the test compound; and 50 μL of the 100 μM solution of the test compound was added to 450 μL of 100 mM potassium phosphate buffer to obtain a 10 μM solution of the test compound.
(§3) The 10 μM solution of the test compound was pre-incubated with the microsome from the above three species for 10 minutes, respectively, and then a working solution of a reduced nicotinamide adenine dinucleotide phosphate (NADPH) regeneration system was added to the incubation plate at each time point to initiate the reaction, and finally a stop solution (100% ACN) was added to the reaction plate to terminate the reaction at 0, 5, 10, 20, 30 and 60-minute. The test compound was determined by LC-MS/MS method.

MDR1 = assay: Cell membrane permeability test on MDR1-MDCK II cells; assay type: in vitro ADME; conditions: dog; for Papp A→B at 150 min, 2 μM / Papp B→A at 150 min, 2 μM: pH=7.4; for efflux ratio at 150 min, 2 μM: pH 7.4, Papp B to A/Papp A to B
Method: Cell membrane permeability of a test compound was evaluated on MDR1-MDCK II cells.
A test compound (10 mM solution of the compound in DMSO) was diluted with a transfer buffer (HBSS with 10 mM Hepes, pH=7.4) to prepare a sample having a final concentration of 2 μM, followed by bidirectional (A-B and B-A) administration. After administration, the cell plate was incubated in an incubator with 5% CO2 and a saturated humidity at 37° C. for 150 minutes. After the 150-minute incubation, the sample was collected, and the concentration of the test compound in the transfer sample was semi-quantitatively determined by LC/MS/MS method.

[2] = Liver microsome stability test, mouse; assay type: in vitro ADME; conditions: mouse liver microsomes; CD-1 mouse (M) liver microsome; read-out: Liver microsome stability (T1/2, min)
Method: as §1, §2, §3

[3] = Liver microsome stability test, rat; assay type: in vitro ADME; conditions: rat liver microsomes; SD rat (R) liver microsome; read-out: Liver microsome stability (T1/2, min)
Method: as §1, §2, §3

| Structure (SMILES) | IC50 (MM1.S cells) [nM] | half-life [1] [min] | Papp A→B at 150 min, 2 μM (MDR1) [×10⁻⁶ cm/s] | Papp B→A at 150 min, 2 μM (MDR1) [×10⁻⁶ cm/s] | efflux ratio at 150 min, 2 μM (MDR1) | half-life [2] [min] | half-life [3] [min] |
| --- | --- | --- | --- | --- | --- | --- | --- |
| CC(C)CC(NC(=O)CNC(=O)[C@@H]1CCN1c1ccc(Cl)cc1C(F)(F)F)B(O)O (some centres unmarked) [WX-385] | 104 |  |  |  |  |  |  |
| CC(C)CC(NC(=O)CNC(=O)[C@@H]1CCN1c1ccc(F)cc1Cl)B(O)O (some centres unmarked) [WX-381] | 119 |  |  |  |  |  |  |
| CC(C)CC(NC(=O)[C@H](CC1CC1)NC(=O)[C@@H]1CCN1c1ncc(F)cn1)B(O)O (some centres unmarked) [WX-260] | 11 | 108 | 0.3 | 5.1 | 17 | 84.8 | > 145 |
| CC(C)CC(NC(=O)CNC(=O)[C@@H]1CCN1c1ccc(C(F)(F)F)nn1)B(O)O (some centres unmarked) [WX-367] | 183 |  |  |  |  |  |  |
| CC(C)CC(NC(=O)CNC(=O)[C@@H]1CCN1c1ncc(F)cc1F)B(O)O (some centres unmarked) [WX-379] | 24 |  |  |  |  |  |  |
| CC(C)CC(NC(=O)CNC(=O)[C@@H]1CCN1c1ccc(C(F)(F)F)cc1Cl)B(O)O (some centres unmarked) [WX-351] | 45.9 |  |  |  |  |  |  |
| CC(C)CC(NC(=O)CNC(=O)[C@@H]1CCN1c1nc(C(F)(F)F)cs1)B(O)O (some centres unmarked) [WX-327] | 24.2 | 75 | 0.24 | 2.24 | 9.33 | 37.7 | 26.5 |
| CC(C)CC(NC(=O)[C@H](C)NC(=O)[C@@H]1CCN1c1ncc(F)cn1)B(O)O (single isomer, unassigned) [WX-313] | 24.5 | > 145 | 0.2 | 1.29 | 7.16 | 52.5 | 57.2 |
| CC(C)CC(NC(=O)CNC(=O)[C@@H]1CCN1c1c(F)cc(Cl)cc1F)B(O)O (some centres unmarked) [WX-373] | 26.7 |  |  |  |  |  |  |
| CC(C)CC(NC(=O)CNC(=O)[C@@H]1CCN1c1ccc(C(F)(F)F)cc1F)B(O)O (some centres unmarked) [WX-355] | 28.8 |  |  |  |  |  |  |
| CC(C)CC(NC(=O)CNC(=O)[C@@H]1CCN1c1ccc(F)cn1)B(O)O (single isomer, unassigned) [WX-317] | 32 | 77 | 0.01 | 0.05 | 5 | 27.1 | 35.5 |
| CC(C)CC(NC(=O)CNC(=O)[C@@H]1CCN1c1ccc(C#N)cc1F)B(O)O (some centres unmarked) [WX-365] | 90.6 |  |  |  |  |  |  |
| CC(C)CC(NC(=O)CNC(=O)[C@@H]1CCN1c1ccc(C(F)(F)F)cn1)B(O)O (some centres unmarked) [WX-329] | 11.5 | 51.5 | 0.27 | 3.74 | 13.8 | 40.3 | 43.3 |
| CC(C)CC(NC(=O)[C@H](CC1CC1)NC(=O)[C@@H]1CCN1c1nc(C(F)(F)F)cs1)B(O)O (some centres unmarked) [WX-308] | 8.9 | 27.4 | 0.2 | 15.3 | 76.5 | 20.1 | 26.8 |

Now those with a lower IC50 (MM1.S cells), led by results:

| IC50 (MM1.S cells) [nM] | half-life [1] [min] | Papp A→B at 150 min, 2 μM (MDR1) [×10⁻⁶ cm/s] | Papp B→A at 150 min, 2 μM (MDR1) [×10⁻⁶ cm/s] | efflux ratio at 150 min, 2 μM (MDR1) | half-life [2] [min] | half-life [3] [min] | Structure (SMILES) |
| --- | --- | --- | --- | --- | --- | --- | --- |
| 5.8 | 3.5 | 0.44 | 18.4 | 41.8 | 0.8 | 1.6 | CC(C)CC(NC(=O)[C@H](Cc1ccccc1)NC(=O)[C@@H]1CCN1c1nccc(-c2ccccc2)n1)B(O)O (some centres unmarked) [WX-174] |
| 8.2 | 17.8 | 0.3 | 17.8 | 59.3 | 14 | 37.4 | CC(C)CC(NC(=O)[C@H](CC1CC1)NC(=O)[C@@H]1CCN1c1ccc(C(F)(F)F)cn1)B(O)O (some centres unmarked) [WX-306] |
| 5.8 | 74.3 |  |  |  | 43.5 | 42.1 | CC(C)CC(NC(=O)CNC(=O)[C@@H]1CCN1c1ccc(F)cc1)B(O)O (single isomer, unassigned) [WX-301] |
| 5.4 |  |  |  |  |  |  | CC(C)CC(NC(=O)CNC(=O)[C@@H]1CCN1c1cc(F)c(F)cc1F)B(O)O (some centres unmarked) [WX-391] |
| 8.2 | 4.8 | 0.1 | 13.1 | 131 | 2.7 | 4.6 | CC(C)CC(NC(=O)[C@H](Cc1ccccc1)NC(=O)[C@@H]1CCN1c1ccc(F)cc1)B(O)O (single isomer, unassigned) [WX-193] |
| 1 | 67.4 | 0.38 | 7.32 | 19.3 | 67.4 | 43.1 | CC(C)CC(NC(=O)CNC(=O)[C@@H]1CCN1c1ccc(F)cc1F)B(O)O (single isomer, unassigned) [WX-333] |
